Reference: ChEMBL document CHEMBL1136065, “The synthesis and structure-activity relationships of 1,3-diaryl 1,2,4-(4H)-triazol-5-ones: a new class of calcium-dependent, large conductance, potassium (maxi-K) channel opener targeted for urge urinary incontinence” (Bioorg Med Chem Lett, 2002)

How the values were obtained:
Rattus norvegicus [1] = organism: Rattus norvegicus; assay: Compound was tested for percentage inhibition of isometric force in response to a test compound in isolated rat bladder strips pre-contracted with carbachol at a concentration of 20 uM; type: functional
Rattus norvegicus [2] = organism: Rattus norvegicus; assay: Compound was tested for percentage inhibition of isometric force in response to a test compound in isolated rat bladder strips pre-contracted with carbachol at a concentration of 3 uM; type: functional
[3] = target: Calcium-activated potassium channel subunit alpha-1 KCNMA1 (Mus musculus) (UniProt Q08460); assay: Compound was tested for its effect on maxi-K-mediated outward current in Xenopus laevis oocytes expressing the cloned maxi-K channel mslo at a concentration of 20 uM; conditions: oocyte
Calcium-activated potassium channel subunit alpha-1 KCNMA1 (Mus musculus), sequence (Q08460 whole entry, looked up): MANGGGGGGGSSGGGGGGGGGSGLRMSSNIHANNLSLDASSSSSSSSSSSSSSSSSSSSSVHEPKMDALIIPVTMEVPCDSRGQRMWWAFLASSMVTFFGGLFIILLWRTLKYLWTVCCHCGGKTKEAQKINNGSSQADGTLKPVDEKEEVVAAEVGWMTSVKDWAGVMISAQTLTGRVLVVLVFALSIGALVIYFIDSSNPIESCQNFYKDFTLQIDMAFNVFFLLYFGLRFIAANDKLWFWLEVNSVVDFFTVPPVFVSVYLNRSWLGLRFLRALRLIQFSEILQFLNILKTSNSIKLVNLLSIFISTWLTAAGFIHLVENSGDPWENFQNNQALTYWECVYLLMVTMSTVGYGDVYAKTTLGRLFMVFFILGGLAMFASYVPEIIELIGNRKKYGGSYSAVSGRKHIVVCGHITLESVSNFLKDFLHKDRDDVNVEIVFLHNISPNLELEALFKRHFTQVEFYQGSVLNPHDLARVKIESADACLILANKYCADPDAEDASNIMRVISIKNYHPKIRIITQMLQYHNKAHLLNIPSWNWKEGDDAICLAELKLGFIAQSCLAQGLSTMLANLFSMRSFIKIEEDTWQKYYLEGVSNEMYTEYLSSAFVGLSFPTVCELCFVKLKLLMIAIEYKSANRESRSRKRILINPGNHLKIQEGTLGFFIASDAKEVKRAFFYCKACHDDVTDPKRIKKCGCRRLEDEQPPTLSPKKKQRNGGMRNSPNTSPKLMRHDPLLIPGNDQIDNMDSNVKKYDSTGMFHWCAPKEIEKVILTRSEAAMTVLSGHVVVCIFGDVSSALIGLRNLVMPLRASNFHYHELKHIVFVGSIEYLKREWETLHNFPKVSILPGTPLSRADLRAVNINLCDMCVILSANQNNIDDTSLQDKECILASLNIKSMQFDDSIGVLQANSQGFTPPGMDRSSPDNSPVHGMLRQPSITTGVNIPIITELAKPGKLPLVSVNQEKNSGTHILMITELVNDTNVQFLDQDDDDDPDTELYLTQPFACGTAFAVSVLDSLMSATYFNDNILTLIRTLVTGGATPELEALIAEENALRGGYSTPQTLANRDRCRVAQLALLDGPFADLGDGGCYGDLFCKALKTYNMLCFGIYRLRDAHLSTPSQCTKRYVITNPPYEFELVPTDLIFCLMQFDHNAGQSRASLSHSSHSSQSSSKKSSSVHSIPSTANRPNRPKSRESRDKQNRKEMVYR

[4] = target: Calcium-activated potassium channel subunit alpha-1 KCNMA1 (Homo sapiens) (UniProt Q12791); assay: Compound was tested for its effect on maxi-K-mediated outward current in Xenopus laevis oocytes expressing the cloned maxi-K channel hslo at a concentration of 1 uM; conditions: oocyte
Calcium-activated potassium channel subunit alpha-1 KCNMA1 (Homo sapiens), sequence (Q12791 whole entry, looked up): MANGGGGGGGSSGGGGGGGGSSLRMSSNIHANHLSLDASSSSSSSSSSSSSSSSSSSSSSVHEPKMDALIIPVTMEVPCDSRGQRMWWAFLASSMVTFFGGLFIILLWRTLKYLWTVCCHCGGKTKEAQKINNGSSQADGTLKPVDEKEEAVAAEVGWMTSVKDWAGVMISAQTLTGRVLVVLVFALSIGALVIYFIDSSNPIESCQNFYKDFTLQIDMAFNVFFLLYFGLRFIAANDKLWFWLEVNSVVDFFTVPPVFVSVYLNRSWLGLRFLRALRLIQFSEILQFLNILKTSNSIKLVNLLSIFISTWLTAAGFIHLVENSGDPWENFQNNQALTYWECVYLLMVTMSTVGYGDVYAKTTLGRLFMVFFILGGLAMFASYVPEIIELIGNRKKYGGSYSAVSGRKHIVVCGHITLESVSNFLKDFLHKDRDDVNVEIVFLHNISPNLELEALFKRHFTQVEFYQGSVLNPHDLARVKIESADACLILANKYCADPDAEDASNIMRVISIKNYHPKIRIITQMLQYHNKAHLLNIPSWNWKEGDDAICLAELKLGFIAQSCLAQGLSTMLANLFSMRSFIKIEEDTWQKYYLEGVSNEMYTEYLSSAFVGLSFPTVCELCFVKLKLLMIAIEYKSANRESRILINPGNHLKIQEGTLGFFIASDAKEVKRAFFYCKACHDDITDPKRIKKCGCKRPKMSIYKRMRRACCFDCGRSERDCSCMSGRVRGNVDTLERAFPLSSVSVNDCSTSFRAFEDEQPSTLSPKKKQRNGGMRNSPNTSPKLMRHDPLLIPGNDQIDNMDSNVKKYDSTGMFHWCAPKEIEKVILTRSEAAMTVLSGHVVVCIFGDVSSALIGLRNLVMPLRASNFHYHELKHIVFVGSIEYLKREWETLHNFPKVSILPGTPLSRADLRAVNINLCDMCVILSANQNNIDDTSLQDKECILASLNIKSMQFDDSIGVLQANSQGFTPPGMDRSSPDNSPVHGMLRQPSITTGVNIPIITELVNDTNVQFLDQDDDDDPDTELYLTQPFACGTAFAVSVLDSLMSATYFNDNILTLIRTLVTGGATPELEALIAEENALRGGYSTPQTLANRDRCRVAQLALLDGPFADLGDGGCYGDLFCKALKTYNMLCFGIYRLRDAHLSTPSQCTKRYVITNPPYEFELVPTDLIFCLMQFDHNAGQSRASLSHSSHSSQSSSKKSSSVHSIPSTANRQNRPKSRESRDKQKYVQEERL

[5] = target: Calcium-activated potassium channel subunit alpha-1 KCNMA1 (Mus musculus) (UniProt Q08460); assay: Compound was tested for its effect on maxi-K-mediated outward current in Xenopus laevis oocytes expressing the cloned maxi-K channel mslo at a concentration of 10 uM; conditions: oocyte

SMILES | Increase [3] | Increase [4] | Increase [5] | inhibition at 20 µM (Rattus norvegicus [1]) | inhibition at 3 µM (Rattus norvegicus [2])
Oc1ccc(Cl)cc1-n1nc(-c2cc(C(F)(F)F)cc(C(F)(F)F)c2)nc1O | 154.2% |  |  |  | 15%
O=c1[nH]c(-c2ccc(C(F)(F)F)cc2)nn1-c1cc(Cl)ccc1O | 196.8% |  |  | 87% | 22%
Oc1ccc(Cl)cc1-n1nc(-c2ccccc2)nc1O |  | 91.4% |  | 89.4% | 35%
O=c1[nH]c2cc(C(F)(F)F)ccc2n1-c1cc(Cl)ccc1O | 131.8% |  |  | 8% | 

More lines, main results first:

Increase [3] | Increase [4] | Increase [5] | SMILES | inhibition at 20 µM (Rattus norvegicus [1]) | inhibition at 3 µM (Rattus norvegicus [2])
117.1% |  |  | Oc1ccc(Cl)cc1-n1nc(-c2ccccc2C(F)(F)F)nc1O | 90% | 34%
198.5% |  |  | Oc1ccc(Cl)cc1-n1nc(-c2ccc(C(F)(F)F)c(Cl)c2)nc1O |  | 5%
175.5% |  |  | Oc1ccc(Cl)cc1-n1nc(-c2ccc(C(F)(F)F)cc2C(F)(F)F)nc1O | 94% | 46%
 |  | 161.5% | Oc1ccc(Cl)cc1-n1nc(-c2cccc(C(F)(F)F)c2)nc1O |  | 42%
